Data: PMC9227077, “Prediction Models for Brain Distribution of Drugs Based on Biomimetic Chromatographic Data” (Molecules, 2022)
Where two headings read alike, the source gives them in different places.

Key:
human serum albumin = system: human serum albumin; design: method as in ref 45 (a number printed in a supplementary file, which may have a reference list of its own: not looked up in the article's list); conditions: pH=7.4, isocratic, 10% acetonitrile; available for 37 compounds, remaining calculated by equation; cited from earlier work
α1 acid glycoprotein = system: α1 acid glycoprotein; design: method as in ref 23, 24, 27, 29, 45 (a number printed in a supplementary file, which may have a reference list of its own: not looked up in the article's list); conditions: pH=7.4, 100% aqueous mobile phase; previously obtained in authors' laboratory; cited from earlier work
[1] = Unbound fraction in brain (fu,brain), brain homogenate method; conditions: Kb from literature fu,brain
Description: However, Kp,uu,brain can be derived from Kp,brain by combining the unbound fraction of the drug in the plasma (fu,p) and in the brain (fu,brain) or the unbound brain volume of distribution, Vu,brain [7]. […] The relevant equations are included in Section 3. Evidently, fu,p is obtained by standard methods for plasma protein binding.
Experimentally determined Kp,brain values for 42 compounds were obtained from the literature and were converted to logBB. They preferably referred to rat studies in order to achieve homogeneity in the data. Experimental fu,brain values were available from the literature for 39 compounds in the dataset. When more than one value was available, the average was calculated. Most values were determined on rats.
The decimal logarithm of Kb, logKb, was used for the development of the models.

[2] = design: method as in ref 23, 24, 27, 29, 45 (a number printed in a supplementary file, which may have a reference list of its own: not looked up in the article's list); conditions: 100% aqueous mobile phase, previously obtained in authors' laboratory, cited from earlier work
[3] = rat brain tissue; cited from earlier work
[4] = cited from earlier work; for logBB exper.: literature Kp,brain converted to logBB; for Kp,brain: total brain/total plasma, preferably rat studies
[5] = most values in rats, average if more than one value; cited from earlier work
[6] = cited from earlier work
[7] = brain slice method; cited from earlier work
[8] = octanol-water partition coefficient, experimental
[9] = pH=5.0, octanol-water, experimental
[10] = pH=7.4, octanol-water, experimental

SMILES	logk10,HSA (human serum albumin)	logkwAGP (α1 acid glycoprotein)	logKb exper. [1]	logkw IAM ([2]; pH=5.0, PBS)	logkw IAM ([2]; pH=7.4, PBS)	Kp,uu,brain [3]	logBB exper. [4]	Kp,brain [4]	fu,brain [5]	logP [6, 8]	logD [6, 9]	logD [6, 10]	Vu,brain [7]	logP [6]
CC(=O)Nc1ccc(O)cc1 [Acetaminophen]	-0.56	0.10	0.692	-0.06	0.18	0.18	-0.31	0.49	–	–	–	–	–	–
CCCC(C)(COC(N)=O)COC(N)=O [Meprobamate]	-0.36	–	0.245	0.54	0.72	–	–	–	0.638	0.70	1.07	0.70	–	–
CN(C)C(=N)N=C(N)N [Metformin]	–	–	1.270	–	-0.37	–	–	–	–	–	–	–	10.00 mL/g brain	–
Cc1ncc2n1-c1ccc(Cl)cc1C(c1ccccc1F)=NC2 [Midazolam]	0.99	–	–	1.93	2.77	2.19	0.36	2.29	0.026	–	1.95	3.27	29.00 mL/g brain	–
CN(C)C(=O)Oc1cccc([N+](C)(C)C)c1 [Neostigmine]	-1.91	–	1.270	-0.08	0.37	–	–	–	0.950	-2.16	-2.16	-2.16	3.20 mL/g brain	–
CCn1cc(C(=O)O)c(=O)c2cc(F)c(N3CCNCC3)cc21 [Norfloxacin]	-0.92	–	0.139	–	–	0.05	-1.15	0.07	0.580	-1.03	-1.17	-1.03	2.90 mL/g brain	–
CNC(=C[N+](=O)[O-])NCCSCc1ccc(CN(C)C)o1 [Ranitidine]	-0.41	–	1.317	–	0.61	–	-1.23	0.06	–	–	-3.37	-0.53	–	1.28
O=C(O)c1ccccc1O [Salicylic acid]	–	–	0.230	0.46	-0.08	–	–	–	0.630	–	–	–	1.00 mL/g brain	–
